Experimental data: patent publication US10933002B2, “Preservation booster” (DSM IP ASSETS B.V., priority 2017, dated 2021)

Test system: Escherichia coli
Assay: antimicrobial efficacy in analogy to the regulatory challenge test method (NF EN ISO11930)
Assay type: cell-based
Settings: 0.2 wt.-% test solution in physiological serum; 24 h after contamination; 22° C.; initial contamination 580000 cfu/ml
Experimental: The term “antimicrobial activity” (or “antimicrobial effect”) as used herein means a capability of killing and/or inhibiting the growth of pathogenic or unwanted bacteria, such as in particular Escherichia coli (Escherichia coli ATCC 8739). The applied measuring method is NF EN IS011930. The antimicrobial efficacy is assessed in analogy to the regulatory challenge test method (NF EN ISO11930). Thus, solutions of the respective active(s) in ethanol are prepared and further dissolved in physiological serum with 0.85 wt.-% NaCl in the concentrations as outlined in table 1 under sterile conditions. Samples containing phytantriol were solubilized in physiological serum supplemented with 10 wt.-% ethanol, samples containing erythrulose only were solubilized in physiological serum supplemented with 1 wt.-% ethanol. The solutions of the active(s) were deposed in 96-deep well plates (1.6 ml/well). The wells are contaminated with the Escherichia coli at 1.5*10^5 to 1*10^6 cfu/ml to obtain the initial contamination as outlined in table 1. After the contamination, each well was thoroughly mixed to ensure a homogeneous distribution of E. coli. Then each plate was incubated at 22° C. for 24 h. The counting of the (remaining) population is carried out 24 h after contamination.

SMILES | Escherichia coli colony count | Log reduction
O=C(CO)[C@H](O)CO (racemic) [erythrulose] | 33700 cfu/ml | −1.236
CC(C)CCCC(C)CCCC(C)CCCC(C)(O)C(O)CO (stereo not shown) [phytantriol, 3,7,11,15-tetramethyl-1,2,3-hexadecanetriol] | 1000 cfu/ml | −2.763
